Source: publication PMC10419975, “A Novel Betulinic Acid Analogue: Synthesis, Solubility, Antitumor Activity and Pharmacokinetic Study in Rats” (Molecules, 2023)
Values after ≈ are worked out from the molar mass of the structure shown. Where two headings read alike, the source gives them in different places.

Tests used:
[1] = Equilibrium solubility in different solvents (saturation shake-flask, HPLC); assay type: physicochemical; details: 20 °C, thermodynamic from solid
Description: (§1) The solubility was recorded at 20 °C in the present study. The solubility under equilibrium conditions was determined using the saturation shake-flask method with minor modifications. Briefly, an excess amount of SBE was added slowly to 1 mL of different solvents including methanol, ethanol, ethyl acetate, n-butanol, n-octanol, acetonitrile, petroleum ether as well as water. The mixture was then in crimp-sealed vials and was stirred vigorously at 20 °C for about 48 h. After that, the mixture was left to stand for an additional 24 h to reach equilibration, and then followed by centrifuging at 13,000 rpm for at least 10 min. 50 µL of the supernatant was transferred into a new tube, and evaporated to dryness under a slow nitrogen stream. The residue was then stored at −20 °C for further use or reconstituted in 1 mL of methanol. For the aqueous solution, 500 µL of the supernatant was transferred to the new tube, and the residue was reconstituted in 100 µL of methanol after dryness. After being centrifuged at 13,000 rpm for 10 min, a 20 μL aliquot was injected into the HPLC systems.

[2] = system: HT29 (colon cancer cell line); experiment: In vitro cytotoxic activity, MTT assay; assay type: cell-based; details: Homo sapiens, HT-29, 72 h
Description: (§2) The in vitro cytotoxic activities of SBE were evaluated on six different tumor cell lines including MPC2 (pancreatic cancer cell line), HT29 (colon cancer cell line), DU145 (prostate cancer cell line), NCI-H520 (lung cancer cell line), Hela (cervical cancer cell line) and 2774 (ovarian cancer cell line) using MTT assay. Cells were cultured in RPMI DMEM medium (containing 100 IU/mL G-penicillin, 100 µg/mL streptomycin and supplemented with 10% fetal calf serum) at 37 °C with 5% of CO2 in a CO2 incubator. In the MTT experiments, the cells were initially seeded in a 96-well plate with 0.1–0.2 mL (about 15 × 10^3 cells) of culture medium per well and allowed to attach overnight (about 24 h). Once attached, the cell confluence in each well reached approximately 50–60% when the drugs were added. Then the medium was replaced with fresh medium containing SBE or BA at different concentrations in four replicates. After incubating in the CO2 incubator for 3 days (about 72 h), 30 µL of MTT solution (3 mg/mL in culture medium) was added to each well and incubated for an additional 4 h. The medium was then aspirated and 150 µL of DMSO was added to each well to dissolve the formazan crystals thoroughly. The absorbance (OD value) was quantitated at 490 nm using a microplate reader (ELX800, Biotek, America). The relative growth inhibition rate (%) was calculated as (1 − mean absorbance of the sample/mean absorbance of the control) × 100%, considering the optical density of the control as 100%.

[3] = system: Hela (cervical cancer cell line); experiment: In vitro cytotoxic activity, MTT assay; assay type: cell-based; details: Homo sapiens, 72 h
Description: as §2

[4] = system: DU145 (prostate cancer cell line); experiment: In vitro cytotoxic activity, MTT assay; assay type: cell-based; details: Homo sapiens, DU-145, 72 h
Description: as §2

[5] = system: MPC2 (pancreatic cancer cell line); experiment: In vitro cytotoxic activity, MTT assay; assay type: cell-based; details: 72 h
Description: as §2

[6] = system: 2774 (ovarian cancer cell line); experiment: In vitro cytotoxic activity, MTT assay; assay type: cell-based; details: 2774, MTT, 72 h
Description: as §2

[7] = system: NCI-H520 (lung cancer cell line); experiment: In vitro cytotoxic activity, MTT assay; assay type: cell-based; details: Homo sapiens, 72 h
Description: as §2

[8] = system: Lewis lung carcinoma (LLC) tumor; experiment: Lewis lung carcinoma (LLC) subcutaneous xenograft growth model; assay type: in vivo, C57BL/6J mice; details: 0.4 mmol/kg i.p. every other day; for tumor growth inhibition rate (IR) / effect on the body weight of the mice / mean tumor volume: 18 days; for effect on the body weight of the mice: vs vehicle control; for mean tumor volume: placebo 3522.72 ± 2446.63 mm^3; for tumor weight reduced by: day 18, vs vehicle control; for mean tumor weight: day 18, vehicle control 2.86 ± 1.16 g
Description: The antitumor activities in vivo assay were performed as described previously with minor modifications. C57BL/6J mice (20 ± 2 g) for the xenograft animal model were purchased from the Laboratory Animal Center of Jilin University (Jilin, China). A formulation of SBE (48 mg/mL) or BA (40 mg/mL) was prepared by mixing SBE or BA with ethanol/tween 80/normal saline (v/v/v = 1/1/18). Each of the mice was inoculated subcutaneously on the back with about 1 × 10^6 Lewis lung carcinoma (LLC) tumor cells (purchased from Nanjing KeyGen Biotech. Inc., China) to obtain the xenograft animal model. Then the mice were divided into three experimental groups (n = 4) randomly on the next day after implantation. BA (200 mg/kg, i.e., 0.4 mmol/kg), SBE (240 mg/kg, i.e., 0.4 mmol/kg) or placebo was injected intraperitoneally (i.p.) every other day. The changes in tumor length, width and body weight were also observed and recorded every other day. Xenograft tumor volume (TV) and growth inhibition rate (IR) were calculated as the following equation [25]:TV = 0.5 × length × width^2; IR = (Vcontrol − Vtreat)/Vcontrol × 100%.
Mice were continually observed for 18 days, and then sacrificed on day 18 via euthanasia. The implanted tumors then were excised and weighed for subsequent analysis. All the animal handling procedures above were according to standard operating procedures approved by the institutional animal care and use committee at Northeast Forestry University.

Bcl-xL = experiment: Western blot analysis in Hela cells; assay type: cell-based; details: 50 μmol/L, 24 h
Description: (§3) Expression of the proteins including cleaved-cas9, Bad and Bcl-xL in Hela cells treated with BA or SBE were determined by western blot analysis. Briefly, HeLa cells (1.7 × 10^5) were seeded in a 6-well microplate and allowed to attach overnight (about 24 h). The cells were then treated with BA or SBE at a concentration of 50 μmol/L for another 24 h. After that, cells were collected and lysed in PIRA buffer (Beyotime Biotech, Beijing, China) with PhosSTOP phosphatase inhibitor cocktail tablets (Roche Diagnostics, Mannheim, Baden-Württemberg, Germany). Bradford method was used to quantify the protein concentration. The samples were denatured at 100 °C for 5 min using a block heater. Then 30 μg of the denatured samples were separated by SDS-PAGE and allowed to transfer to a PVDF membrane. After the blots were blocked and washed, they were incubated overnight at 4 °C with specific primary antibodies against cleaved-cas9, Bad, Bcl-xL and β-actin. The blotting membrane was then washed three times using TBS-tween (Tris buffer saline with 1% Tween-20, pH 7.5), and incubated with IgG secondary antibodies for another 1 h at room temperature (or incubated overnight at 4 °C), followed by the same washing procedures above. After that, the immunoreactive proteins were developed with the ECL system. Imagelab software was used to quantify proteins and β-actin was used as a loading control. The changed fold was represented by the protein expression ratio [(target protein/the β-actin)/(the control group/the β-actin)].

Bad/Bcl-xL ratio = experiment: Western blot analysis in Hela cells; assay type: cell-based; details: 50 μmol/L, 24 h
Description: as §3

cleaved-cas9 (caspase 9) = experiment: Western blot analysis in Hela cells; assay type: cell-based; details: 50 μmol/L, 24 h
Description: as §3

[9] = design: method as in PMID 24095874; details: i.g. dose of 500 mg/kg; cited from earlier work
[10] = Pharmacokinetics of BE after i.g. dosing (previous study); assay type: in vivo, rat; details: BE i.g. 500 mg/kg vs SBE i.g. 200 mg/kg
[11] = Apparent oil/water partition coefficient (water-saturated n-octanol vs phosphate buffer); assay type: physicochemical; details: for logP: water-saturated n-octanol/phosphate buffer
Description: (§4) Equilibrium solubility was determined by the method described above. The apparent oil-water partition coefficient (P) was calculated through the mass concentration ratio of the oil phase and water phase after balancing SBE distribution using the following equations: P = C1V1/(C0V0 − C1V1), where C0 and C1 are the initial and final concentrations of SBE in n-octanol before and after equilibration, respectively; V0 is the volume of n-octanol (water-saturated), V1 is the final oil volume after equilibration.

[12] = Equilibrium solubility in phosphate buffer at different pH; assay type: physicochemical; details: 20 °C, aqueous buffer, thermodynamic from solid
Description: as §1
as §4, with “Equilibrium solubility and apparent oil-water partition coefficient of SBE in pH 5.0, 6.0, 6.5, 7.0, 7.4 and 8.0 phosphate buffer were also determined. Equilibrium” for “Equilibrium”

Bad = experiment: Western blot analysis in Hela cells; assay type: cell-based; details: 50 μmol/L, 24 h, vs control cells
Description: as §3

C=C(C)[C@@H]1CC[C@]2(C(=O)O)CC[C@]3(C)[C@H](CC[C@@H]4[C@@]5(C)CC[C@H](O)C(C)(C)[C@@H]5CC[C@]43C)[C@@H]12 [BA, 3β-hydroxy-lup-20(29)-en-28-oic acid, reference compound]
solubility thermodynamic at 48 h ([1]; acetonitrile, organic solvent or mixture): 250 ± 20 µg/mL (≈ 547 µM) | solubility thermodynamic at 48 h ([1]; ethanol, organic solvent or mixture): 4130 ± 20 µg/mL (≈ 9040 µM) | solubility thermodynamic at 48 h ([1]; ethyl acetate, organic solvent or mixture): 4470 ± 240 µg/mL (≈ 9790 µM) | solubility thermodynamic at 48 h ([1]; methanol, organic solvent or mixture): 1920 ± 440 µg/mL (≈ 4200 µM) | solubility thermodynamic at 48 h ([1]; n-butanol, organic solvent or mixture): 4140 ± 100 µg/mL (≈ 9060 µM) | solubility thermodynamic at 48 h ([1]; n-octanol, organic solvent or mixture): 6230 ± 680 µg/mL (≈ 13600 µM) | solubility thermodynamic at 48 h ([1]; petroleum ether, organic solvent or mixture): 27 ± 10 µg/mL (≈ 59.1 µM) | solubility thermodynamic at 48 h ([1]; water): 36 ± 10 µg/mL (≈ 78.8 µM) | IC50 [2]: 32.7 ± 0.62 µM | IC50 [3]: 25.9 ± 1.87 µM | IC50 [4]: 23.3 ± 2.2 µM | IC50 [5]: 38.6 ± 2.91 µM | IC50 [6]: 39.5 ± 2.19 µM | IC50 [7]: 19.6 ± 2.44 µM | tumor growth inhibition rate (IR) [8]: ~61.93% | effect on the body weight of the mice [8]: no obvious effect | mean tumor volume [8]: 1340.91 ± 1186.99 mm^3 | tumor weight reduced by [8]: ~68.89% | mean tumor weight [8]: 0.89 ± 0.53 g | Bcl-xL levels (Bcl-xL): no significant difference | ratio of Bad/Bcl-xL (Bad/Bcl-xL ratio): notably up-regulated | cleavage products of caspase 9 (cleaved-cas9 (caspase 9)): clearly increased

C=C(C)[C@@H]1CC[C@]2(CO)CC[C@]3(C)[C@H](CC[C@@H]4[C@@]5(C)CC[C@H](O)C(C)(C)[C@@H]5CC[C@]43C)[C@@H]12 [BE, lup-20(29)-en-3β, 28-diol]
AUC0−∞ [9]: 1408.3 ± 183.7 ng·h/mL | AUC0−∞ of BE relative to that of SBE [10]: about 5%

C=C(C)[C@@H]1CC[C@]2(COC(=O)CCC(=O)O)CC[C@]3(C)C(CCC4[C@@]5(C)CC[C@H](O)C(C)(C)C5CC[C@]43C)C12 (some centres unmarked) [SBE, 28-O-succinyl betulin]
Apparent Oil/Water Partition Coefficient (P) ([11]; n-octanol/phosphate buffer pH 5): 9.68 ± 0.13 | Apparent Oil/Water Partition Coefficient (P) ([11]; n-octanol/phosphate buffer pH 6): 9.57 ± 0.30 | Apparent Oil/Water Partition Coefficient (P) ([11]; n-octanol/phosphate buffer pH 6.5): 9.75 ± 0.21 | Apparent Oil/Water Partition Coefficient (P) ([11]; n-octanol/phosphate buffer pH 7): 8.63 ± 0.19 | Apparent Oil/Water Partition Coefficient (P) ([11]; n-octanol/phosphate buffer pH 7.4): 8.14 ± 0.27 | Apparent Oil/Water Partition Coefficient (P) ([11]; n-octanol/phosphate buffer pH 8): 9.53 ± 0.23 | logP ([11]; pH 5, n-octanol/PBS, over pH 5–8, read-out: LogP values (all)): 0.91 to 0.99 | logP ([11]; pH 5, n-octanol/phosphate buffer pH 5, read-out: LogP): 0.99 ± 0.01 | logP ([11]; pH 6, n-octanol/phosphate buffer pH 6, read-out: LogP): 0.98 ± 0.01 | logP ([11]; pH 6.5, n-octanol/phosphate buffer pH 6.5, read-out: LogP): 0.99 ± 0.01 | logP ([11]; pH 7, n-octanol/phosphate buffer pH 7, read-out: LogP): 0.94 ± 0.01 | logP ([11]; pH 7.4, n-octanol/phosphate buffer pH 7.4, read-out: LogP): 0.91 ± 0.01 | logP ([11]; pH 8, n-octanol/phosphate buffer pH 8, read-out: LogP): 0.98 ± 0.01 | tumor growth inhibition rate (IR) [8]: about 88.69% | effect on the body weight of the mice [8]: no obvious effect | mean tumor volume [8]: 398.17 ± 384.06 mm^3 | tumor weight reduced by [8]: about 85.31% | mean tumor weight [8]: 0.42 ± 0.40 g | solubility thermodynamic at 48 h ([12]; phosphate buffer pH 5): 2.79 µg/mL (≈ 5.14 µM) | solubility thermodynamic at 48 h ([12]; phosphate buffer pH 6): 2.66 µg/mL (≈ 4.9 µM) | solubility thermodynamic at 48 h ([12]; phosphate buffer pH 6.5): 2.46 µg/mL (≈ 4.53 µM) | solubility thermodynamic at 48 h ([12]; phosphate buffer pH 7): 10.9 µg/mL (≈ 20.1 µM) | solubility thermodynamic at 48 h ([12]; phosphate buffer pH 7.4): 29.8 µg/mL (≈ 54.9 µM) | solubility thermodynamic at 48 h ([12]; phosphate buffer pH 8): 15.3 µg/mL (≈ 28.2 µM) | Bcl-xL levels (Bcl-xL): no significant difference | expression level of Bad (Bad): significantly higher
